Assay [1] concerns olfactory neurons (primary cultures). The assay is described as follows: effect of substrate matrix substances on morphology and plating efficiency of olfactory neurons. The format is cell-based, rat. To be noted: for process (neurite) outgrowth / plating efficiency: coated slides, phase contrast and anti-vimentin immunofluorescence. On the procedure:
To determine the role of substrate matrix substances on plating efficiency and on cellular selection, a number of different substrates were tested.
Two chamber slides were pretreated in a number of ways. For laminin coating, 1 ml of MDV containing 25 ug/ml laminin was plated onto glass two-chamber slides overnight at 37° C.; before use, the slides were rinsed with MDV. For fibronectin, slides were treated with a solution containing 1 ml of MDV containing 20 ug/ml fibronectin (Collaborative Research), incubated overnight at 37° C., and rinsed with MDV prior to use. For polyornithine (PORN, Sigma Chemicals), a solution at a concentration of 1 mg/ml PORN in deionized distilled water was added to slides, incubated 1 hr at 37° C., rinsed twice with deionized distilled water, and rinsed once with MDV prior to use. When laminin was used on PORN-treated slides, slides were treated with PORN and then laminin in the usual manner. Coating of slides with poly-D-lysine was performed analogous to treatment with polyornithine. Heparan sulfate was diluted in MDV to a concentration of 10 ug/ml and 1 ml was placed on a slide, maintained overnight at 37° C., and rinsed with deionized distilled water prior to use. Collagen (Gibco) or collagen IV (Collaborative Research) was prepared as a 50 ug/ml solution in deionized distilled water and 1 ml of this solution utilized per slide. In the case of collagen, the solution was allowed to air dry. Collagen IV was maintained overnight at room temperature, aspirated, air dried and then rinsed twice with deionized distilled water prior to use. When laminin was used with collagen IV, collagen IV was prepared as described, and laminin was subsequently added in the usual manner. Matrigel (Collaborative Research) was utilized according to manufacturer's instructions.
Primary cultures were prepared as describe above and plated onto a number of different substrates and examined by phase contrast as well as immunofluorescence with antivimentin antisera (FIG. 6).
Matrigel was also examined as a substrate (FIG. 7).

In assay [2] the test system is Primary olfactory neurons. The assay is described as follows: cyclic AMP levels (RIA) in primary olfactory neurons exposed to odorant. To be noted: 10 uM IBMP. The format is cell-based, rat. The source says:
Olfactory tissue from neonatal rats was collected, minced, dissociated in enzymes and plated on chamber slides pretreated with laminin as described below.
Approximately 3 litters or 28-32 pups were used per prep. The 2-3 day old rat pups were sacrificed by decapitation, and olfactory tissue dissected and immediately placed in modified Eagle's medium (MEM) containing 4.8 g/l of HEPES buffer, designated MEM-AIR. The turbinates were transferred twice through fresh MEM-AIR to minimize contamination. Tissue was then centrifuged at 700×g for 7 min. After the supernatant was decanted, the tissue was minced to achieve tissue fragments of approximately 1 mm in size, resuspended in MEM-AIR and centrifuged at 700×g for 7 min. Tissue was then placed in 30 ml of MEM-AIR containing 1% (w/v) BSA, RIA grade (Sigma, St. Louis, Mo.), 1 mg/ml hyaluronidase (Sigma), 50 ug/ml DNAse (Sigma), 1 mg/ml collagenase (Worthington Biochemicals, Freehold, N.J.), and 5 mg/ml dispase (Boehringer-Mannheim Biochemicals, Indianapolis, Ind.), and incubated with agitation for 1 hr at 37° C. At the end of incubation, the cell suspension was triturated 10 times with a 10 ml plastic piper and passed through a 150 micron wire mesh. The cell suspension was then centrifuged at 500×g for 5 min. […]

Assay [3] relates to NG-108 cells. Put plainly: cyclic AMP levels (RIA) in NG-108 cells exposed to odorant. It counts as cell-based. To be noted: similar treatment.
Assay [4] concerns olfactory neurons (primary cultures). Put plainly: effect of NGF on olfactory neuron survival and neurite extension. The format is cell-based, rat. On the procedure:
Approximately 3 litters or 28-32 pups were used per prep. The 2-3 day old rat pups were sacrificed by decapitation, and olfactory tissue dissected and immediately placed in modified Eagle's medium (MEM) containing 4.8 g/l of HEPES buffer, designated MEM-AIR. The turbinates were transferred twice through fresh MEM-AIR to minimize contamination. Tissue was then centrifuged at 700×g for 7 min. After the supernatant was decanted, the tissue was minced to achieve tissue fragments of approximately 1 mm in size, resuspended in MEM-AIR and centrifuged at 700×g for 7 min. Tissue was then placed in 30 ml of MEM-AIR containing 1% (w/v) BSA, RIA grade (Sigma, St. Louis, Mo.), 1 mg/ml hyaluronidase (Sigma), 50 ug/ml DNAse (Sigma), 1 mg/ml collagenase (Worthington Biochemicals, Freehold, N.J.), and 5 mg/ml dispase (Boehringer-Mannheim Biochemicals, Indianapolis, Ind.), and incubated with agitation for 1 hr at 37° C. At the end of incubation, the cell suspension was triturated 10 times with a 10 ml plastic piper and passed through a 150 micron wire mesh. The cell suspension was then centrifuged at 500×g for 5 min. The supernatant was aspirated and the cell pellet resuspended in plating medium composed of modified Eagle's medium containing D-valine (MDV, Gibco, Grand Island, N.Y.) containing 15% (v/v) dialyzed fetal calf serum (dFCS, Gibco), 5% (v/v) NU serum (Collaborative Research, Bedford, Mass.), 10 uM cytosine arabinoside (ara C) and 25 ng/ml nerve growth factor (NGF, Collaborative Research). After resuspension, cells were successively filtered through 50 micron and 10 micron nylon mesh filters (Small Parts, Miami, Fla.), to remove any remaining undigested clumps of cells and epithelial cells. Cells were plated at a density of 1×10^6 cells per cm^2 into tissue culture dish (Falcon, Lincoln Park, N.J.) or Labtek tissue culture slides (Nunc, Naperville, Ill.) coated with MDV containing laminin at 25 ug/ml (Collaborative Research). Cultures were placed in a humidified 37° C. incubator receiving 5% CO2. […]

The mark [5] stands for this setting: without NGF vs 25 ng/ml NGF, by 3 days in culture.

5 molecules from patent publication US5380651A, “Method of determining odorant compounds and antagonists of odorants using a primary culture of olfactory neurons” (The Johns Hopkins University, priority 1993, dated 1995) can be followed below.

“Also recorded” adds a separate entry of the source.

As to fibronectin, the “process (neurite) outgrowth” value in assay [1] is given as “the processes are shorter”.
laminin: the “plating efficiency” value in assay [1] is given as “optimal plating efficiency”. Further, the “neurite extension and aggregation of cells” value in assay [1] (duplicate cell suspensions, laminin vs matrigel) was “cells extend neurites in a random fashion, with no tendency to reaggregate”.
As to collagen, in assay [1], the “plating efficiency” value is “somewhat better plating efficiency than poly-D-lysine, polyornithine or heparan-sulfate” and the “process (neurite) outgrowth” value is on record as “process outgrowth is still stunted”.
With `COc1nccnc1CC(C)C` [IBMP, 2-isobutyl-3-methoxypyrazine], the “change of intracellular cyclic AMP levels” value in assay [2] was “rapid, transient rise in intracellular cyclic AMP levels”. The “change of cyclic AMP levels” value in assay [3] was “does not alter cyclic AMP levels”.

B1: NGF: nerve growth factor (NGF, Collaborative Research) (protein, UniProt P01139 122-241, looked up)
Beta-nerve growth factor: SSTHPVFHMGEFSVCDSVSVWVGDKTTATDIKGKEVTVLAEVNINNSVFRQYFFETKCRASNPVESGCRGIDSKHWNSYCTTTHTFVKALTTDEKQAAWRFIRIDTACVCVLSRKATRRG
modifications: Beta-nerve growth factor
For the molecule B1, in assay [4] (25 ng/ml NGF in medium), the “role in olfactory neuronal survival and neurite extension” value is “necessary for survival of olfactory neurons; also recorded: affects both olfactory neuronal survival and neurite extension in culture”. Also, in assay [4] (setting [5]), the “decrease of cell viability in cells maintained without NGF” value was “approximately 85%” and the “process extension in cells maintained without NGF” value is on record as “lose process extension”.
